Laboratory results reported in ChEMBL document CHEMBL1201862, “PubChem BioAssay data set” (2004).
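Where inhibition never reached the appropriate level, the endpoint shown equals the highest concentration tested. Otherwise, values were interpolated linearly from a five-concentration, 48-hour dose response in 96-well plates. Here, GI50 denotes the concentration required for 50% inhibition of growth.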 Activity calls are given as the source filed them. Cut-off read from the data, not from the text of the source: active = GI50 up to about 1.1 µM and inactive = higher. Where a SMILES comes first, the peptide text is derived from it. The star is where a group is joined. Boc = CC(C)(C)OC(=O)*; OSu = O=C1CCC(=O)N1O*

Experiments:
Assay in all cases: growth of human tumour cells (NCI), 48 h
T47D = test system: T47D
DLD-1 = test system: DLD-1
DMS-114 = test system: DMS-114
DMS-273 = test system: DMS-273
HOP-18 = test system: HOP-18
SNB-78 = test system: SNB-78
XF498 = test system: XF498
KM-20L2 = test system: KM-20L2
RXF 631 = test system: RXF 631

COC(=O)C1=C(OC(=O)c2ccccc2)C(C(=O)OC)[C@]2(O)[C@@H](C(=O)OC)[C@H]1C[C@@H](c1ccccc1)[C@@H]2C(=O)OC (stereo not given in full)
GI50 (T47D): 6.52 µM (inactive)

O=C1NC2(CCCCCC2)C2CCCCCCC12O (stereo not given)
GI50 (DLD-1): > 100 µM (inactive)
GI50 (DMS-114): > 100 µM (inactive)
GI50 (DMS-273): > 100 µM (inactive)
GI50 (HOP-18): > 100 µM (inactive)
GI50 (SNB-78): > 100 µM (inactive)
GI50 (XF498): > 100 µM (inactive)

CCCCOC(=O)C1CN2C=CC=NC2=NC1(C(F)(F)F)C(F)(F)F (stereo not given)
GI50 (T47D): > 100 µM (inactive)

C[N+]1(CCCl)CC[N+](C)(CCCl)CC1 (stereo not given)
GI50 (T47D): > 100 µM (inactive)

CCOC(=O)c1c(Br)c(-c2ccc(Br)cc2)c(Br)n1C
GI50 (T47D): 10.5 µM (inactive)

CCCCCC(=O)OCC(=O)[C@H]1[C@H](C)C[C@H]2[C@@H]3C[C@H](F)C4=C/C(=N/OC(=O)c5cccc6c(=O)c7ccccc7[nH]c56)C=C[C@]4(C)[C@H]3[C@@H](O)C[C@@]21C
GI50 (T47D): 19 µM (inactive)

CSCCC(NC(=O)Cc1ccc(C(=O)c2ccccc2)cc1)C(=O)O (stereo not given)
GI50 (T47D): > 100 µM (inactive)

CS(=O)(=O)Nc1ccc(Nc2ccnc3ccc4[nH]ccc4c23)cc1
GI50 (T47D): 3.77 µM (inactive)

Cc1ncc([N+](=O)[O-])n1CCNS(=O)(=O)CCCn1ncnc1[N+](=O)[O-]
GI50 (T47D): > 100 µM (inactive)

CCN(CC)CCN1CCc2c([nH]c3ccccc23)C1c1cccnc1 (stereo not given)
GI50 (DLD-1): > 100 µM (inactive)
GI50 (DMS-114): > 100 µM (inactive)
GI50 (DMS-273): > 100 µM (inactive)
GI50 (HOP-18): > 100 µM (inactive)
GI50 (KM-20L2): > 100 µM (inactive)
GI50 (SNB-78): > 100 µM (inactive)
GI50 (XF498): > 100 µM (inactive)

CC(=O)C1C(c2ccccc2)C2(C)OC(=O)C(C#N)C12C (stereo not given)
GI50 (DLD-1): > 100 µM (inactive)
GI50 (DMS-114): > 100 µM (inactive)
GI50 (DMS-273): > 100 µM (inactive)
GI50 (HOP-18): > 100 µM (inactive)
GI50 (KM-20L2): > 100 µM (inactive)
GI50 (SNB-78): > 100 µM (inactive)
GI50 (XF498): > 100 µM (inactive)

CCOC(=O)C(C(=O)OCC)=C1C=C(c2ccccc2)c2ccccc21
GI50 (DLD-1): 10.7 µM (inactive)
GI50 (DMS-114): 54.6 µM (inactive)
GI50 (DMS-273): 51.5 µM (inactive)
GI50 (KM-20L2): 31.6 µM (inactive)
GI50 (SNB-78): > 100 µM (inactive)
GI50 (XF498): 70.5 µM (inactive)

Oc1nc2c(c(-c3ccc(F)cc3)n1)COC/C2=C\c1ccc(F)cc1
GI50 (T47D): > 100 µM (inactive)

Cc1nc2c(=O)n(C)ncc2[nH]1
GI50 (T47D): > 100 µM (inactive)

CC(C)C(NC(=O)C(Cc1ccccc1)NC(=O)[C@H]1CCC[C@H]1NC(=O)C(Cc1ccc(OC(C)(C)C)cc1)NC(=O)OC(C)(C)C)C(N)=O (stereo not given in full)
GI50 (T47D): 20 µM (inactive)

CCOc1ccncc1[N+](=O)[O-]
GI50 (T47D): > 100 µM (inactive)

COCC(=O)OC1CCn2c1nc1c2C(=O)C(C)=C(NC(C)=O)C1=O (stereo not given)
GI50 (DLD-1): 12.9 µM (inactive)
GI50 (DMS-114): 1.82 µM (inactive)
GI50 (DMS-273): 17.5 µM (inactive)
GI50 (HOP-18): 27.9 µM (inactive)
GI50 (KM-20L2): 20.4 µM (inactive)
GI50 (SNB-78): 1.81 µM (inactive)
GI50 (T47D): 0.787 µM (active)
GI50 (XF498): 4.41 µM (inactive)

O=C(C(=O)c1cc2ccccc2[nH]1)c1cc2ccccc2[nH]1
GI50 (DLD-1): > 316 µM (inactive)
GI50 (DMS-114): > 220 µM (inactive)
GI50 (DMS-273): > 318 µM (inactive)
GI50 (KM-20L2): > 347 µM (inactive)
GI50 (RXF 631): > 347 µM (inactive)
GI50 (SNB-78): > 347 µM (inactive)
GI50 (XF498): > 176 µM (inactive)

CC(C)(C)OC(=O)NC(Cc1ccc(O)cc1)C(=O)NC(CCCCN)C(=O)NC(Cc1ccc(O)cc1)C(=O)NC(CCCCN)C(=O)ON1C(=O)CCC1=O (stereo not given) (Boc-YKYK-OSu; configuration not given here)
GI50 (T47D): > 100 µM (inactive)

CC1=NN(c2cccc(Cl)c2)C(=N/c2nc3ccccc3s2)/C1=C\c1ccc(Cl)cc1
GI50 (T47D): 33.6 µM (inactive)

CC(=O)OC1CC(O)CC2=CCC3C4CCC(C(C)(O)C(O)CC5COC(=O)C5C)C4(C)CCC3C21C (stereo not given)
GI50 (T47D): > 25 µM (inactive)

COC(=O)c1c(OC(C)=O)ccc2c1c1c(OC(C)=O)c3ccccc3c(OC(C)=O)c1n2Cc1cc(OC)cc(OC)c1
GI50 (T47D): 3.82 µM (inactive)

C[Si](C)(c1ccccc1)[C@H]1CCCC=C1CCNC1c2ccccc2CCc2ccccc21
GI50 (T47D): 35.9 µM (inactive)

C[C@]12CCC(=O)C(O)=C1CC[C@@H]1C2CC[C@]2(C)Nc3c(cnn3-c3ccccc3)CC12 (stereo not given in full)
GI50 (DLD-1): > 100 µM (inactive)
GI50 (DMS-273): 56.4 µM (inactive)
GI50 (KM-20L2): 56.5 µM (inactive)
GI50 (RXF 631): 29.9 µM (inactive)
GI50 (SNB-78): > 100 µM (inactive)
GI50 (XF498): > 100 µM (inactive)

O=S(=O)(O)c1c(/N=N/c2c(O)ccc3ccccc23)ccc2ccccc12
GI50 (T47D): > 100 µM (inactive)

Cn1cnc2nc(Cl)nc(NC(C)(C)C(C)(C)O)c21
GI50 (DLD-1): > 100 µM (inactive)
GI50 (DMS-114): > 100 µM (inactive)
GI50 (DMS-273): > 100 µM (inactive)
GI50 (HOP-18): > 100 µM (inactive)
GI50 (KM-20L2): > 100 µM (inactive)
GI50 (SNB-78): > 100 µM (inactive)
GI50 (XF498): > 100 µM (inactive)

c1ccc2c(c1)CCCc1cc3ccccc3nc1-2
GI50 (DLD-1): > 100 µM (inactive)
GI50 (DMS-114): 26.9 µM (inactive)
GI50 (HOP-18): > 100 µM (inactive)
GI50 (KM-20L2): > 100 µM (inactive)
GI50 (SNB-78): 85.7 µM (inactive)
GI50 (XF498): 53.3 µM (inactive)

C=CCNC(=S)N/C=C1\C(=O)Oc2ccccc2C1=O
GI50 (DLD-1): 41.1 µM (inactive)
GI50 (DMS-114): 35.2 µM (inactive)
GI50 (DMS-273): > 100 µM (inactive)
GI50 (HOP-18): 46.2 µM (inactive)
GI50 (KM-20L2): > 100 µM (inactive)
GI50 (SNB-78): 43.9 µM (inactive)
GI50 (XF498): 18.9 µM (inactive)
